This experiment deals with T1, NEK4 (Homo sapiens, UniProt P51957).
T1 construct: purchased Thermo Fisher Scientific (Life Technologies) SelectScreen
Nature of the experiment: SelectScreen Z'LYTE. The experiment is classed as biochemical. An outline of the steps: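 NU5455 was profiled across the SelectScreen Broad panel of kinase activity and binding assays. Z'LYTE reactions such as CSF1R ran at apparent Km ATP, while the Adapta CAMK1 assay used ATP listed as 10. Values are given as percent.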

The values below come from article PMC6934184, “Selective DNA-PKcs inhibition extends the therapeutic index of localized radiotherapy and chemotherapy” (The Journal of Clinical Investigation, 2019).

T1 sequence (P51957 whole entry): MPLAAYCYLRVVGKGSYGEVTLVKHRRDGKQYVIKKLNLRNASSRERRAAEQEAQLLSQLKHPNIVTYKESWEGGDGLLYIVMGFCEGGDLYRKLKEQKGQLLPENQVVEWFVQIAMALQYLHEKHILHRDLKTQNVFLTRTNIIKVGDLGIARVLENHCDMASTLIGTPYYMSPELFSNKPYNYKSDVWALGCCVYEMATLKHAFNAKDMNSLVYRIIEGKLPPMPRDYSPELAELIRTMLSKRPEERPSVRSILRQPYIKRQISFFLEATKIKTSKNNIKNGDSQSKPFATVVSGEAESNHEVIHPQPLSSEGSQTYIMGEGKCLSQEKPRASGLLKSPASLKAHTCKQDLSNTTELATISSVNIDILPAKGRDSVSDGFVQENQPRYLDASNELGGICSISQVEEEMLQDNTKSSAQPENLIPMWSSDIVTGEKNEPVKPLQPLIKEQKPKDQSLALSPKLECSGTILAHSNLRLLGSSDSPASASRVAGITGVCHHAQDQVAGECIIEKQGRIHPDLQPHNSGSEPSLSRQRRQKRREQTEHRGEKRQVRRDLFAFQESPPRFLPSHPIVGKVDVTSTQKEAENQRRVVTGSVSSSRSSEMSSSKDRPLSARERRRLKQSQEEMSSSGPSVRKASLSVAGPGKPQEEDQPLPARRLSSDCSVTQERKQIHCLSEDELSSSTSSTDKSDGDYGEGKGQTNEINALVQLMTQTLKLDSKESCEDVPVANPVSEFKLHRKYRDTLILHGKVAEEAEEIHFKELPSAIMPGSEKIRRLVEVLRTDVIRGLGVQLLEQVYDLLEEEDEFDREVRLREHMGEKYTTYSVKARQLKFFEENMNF

Consider `CN(C(=O)CN1CCOCC1)c1ccc2sc3c(-c4cccc5c(=O)cc(N6CC7CCC(C6)O7)oc45)cccc3c2c1` [NU5455], for which the inhibition (usually the drop in the measured response relative to a control, in per cent) at 1 µM is -11.6%.
